Laboratory results: patent US20220401514A1, “ANTIMICROBIAL, BACTERIOPHAGE-DERIVED POLYPEPTIDES AND THEIR USE AGAINST GRAM-NEGATIVE AND ACID-FAST BACTERIA” (CONTRAFECT CORPORATION, priority 2019, published 2022)
Converted amounts (≈) assume the structure as drawn.

Tests used:
[1] = system: Mycobacterium tuberculosis strains; test: microbe, parasite or virus in culture
Protocol: MIC values for various Chp peptides were determined using the CLSI method for broth microdilution in 96-well microtiter format.
Next, MIC values for various Chp peptides were determined using the CLSI method above for broth microdilution in 96-well microtiter format for two different Mycobacterium tuberculosis strains. The MIC was determined as explained above for the NTM strains.

[2] = system: Acinetobacter baumannii isolates; test: MIC against CDC Acinetobacter baumannii panel (n = 41); assay type: cell-based
Protocol: MIC values were determined using the methodology described above, i.e., the standard broth microdilution reference method defined by CLSI.

[3] = system: carbapenamase-producing Enterobacteriaceae isolates; test: MIC against CDC Carbapenamase Enterobacteriaceae panel (n = 53); assay type: cell-based
From the text: Additionally, a third panel of 53 carbapenamase-producing Enterobacteriaceae isolates were selected to represent a diversity of species and carbapenemases. See wwwn.cdc.gov/ARIsolateBank/Panel/PanelDetail?ID=8.

[4] = Carbapenamase Enterobacteriaceae panel

Work on `NC[C@H]1O[C@H](O[C@H]2[C@H](O)[C@@H](O[C@H]3O[C@H](CO)[C@@H](O)[C@H](N)[C@H]3O)[C@H](N)C[C@@H]2N)[C@H](N)C[C@@H]1O` [tobramycin, reference compound] yielded an MIC ([1]; ATCC25177) of 4 mg/L (≈ 8.56 µM) and an MIC ([1]; ATCC35817) of 4 mg/L (≈ 8.56 µM).

With “MRLKMARRRYRLPRRRSRRLFSRTALRMHPRNRLRRIMRGGIRF [Chp2]” the MIC50 ([2]; Actinobacter baumannii panel) was 0.5 mg/L, the MIC90 ([2]; Actinobacter baumannii panel) was 1 mg/L and the MIC ([2]; CDC Antibiotic-Resistant Bank No. 0273) was 1 mg/L. The MIC ([2]; CDC Antibiotic-Resistant Bank No. 0274) was 0.5 mg/L, the MIC ([2]; CDC Antibiotic-Resistant Bank No. 0275) was 0.5 mg/L and the MIC ([2]; CDC Antibiotic-Resistant Bank No. 0276) was 0.5 mg/L. The MIC ([2]; CDC Antibiotic-Resistant Bank No. 0277) was 0.5 mg/L, the MIC ([2]; CDC Antibiotic-Resistant Bank No. 0278) was 1 mg/L and the MIC ([2]; CDC Antibiotic-Resistant Bank No. 0279) was 1 mg/L. For the same compound, the MIC ([2]; CDC Antibiotic-Resistant Bank No. 0280) was 1 mg/L, the MIC ([2]; CDC Antibiotic-Resistant Bank No. 0281) was 1 mg/L and the MIC ([2]; CDC Antibiotic-Resistant Bank No. 0282) was 0.5 mg/L. It also gave an MIC ([2]; CDC Antibiotic-Resistant Bank No. 0283) of 1 mg/L, an MIC ([2]; CDC Antibiotic-Resistant Bank No. 0284) of 0.5 mg/L and an MIC ([2]; CDC Antibiotic-Resistant Bank No. 0285) of 0.5 mg/L. It also gave an MIC ([2]; CDC Antibiotic-Resistant Bank No. 0286) of 1 mg/L, an MIC ([2]; CDC Antibiotic-Resistant Bank No. 0287) of 0.5 mg/L and an MIC ([2]; CDC Antibiotic-Resistant Bank No. 0288) of 0.25 mg/L. It also gave an MIC ([2]; CDC Antibiotic-Resistant Bank No. 0289) of 0.5 mg/L, an MIC ([2]; CDC Antibiotic-Resistant Bank No. 0290) of 0.5 mg/L and an MIC ([2]; CDC Antibiotic-Resistant Bank No. 0291) of 0.5 mg/L. For the same compound, the MIC ([2]; CDC Antibiotic-Resistant Bank No. 0292) was 0.5 mg/L, the MIC ([2]; CDC Antibiotic-Resistant Bank No. 0293) was 0.5 mg/L and the MIC ([2]; CDC Antibiotic-Resistant Bank No. 0294) was 0.5 mg/L. For the same compound, the MIC ([2]; CDC Antibiotic-Resistant Bank No. 0295) was 1 mg/L, the MIC ([2]; CDC Antibiotic-Resistant Bank No. 0296) was 0.5 mg/L and the MIC ([2]; CDC Antibiotic-Resistant Bank No. 0297) was 1 mg/L. For the same compound, the MIC ([2]; CDC Antibiotic-Resistant Bank No. 0298) was 0.5 mg/L, the MIC ([2]; CDC Antibiotic-Resistant Bank No. 0299) was 1 mg/L and the MIC ([2]; CDC Antibiotic-Resistant Bank No. 0300) was 2 mg/L. It also gave an MIC ([2]; CDC Antibiotic-Resistant Bank No. 0301) of 1 mg/L, an MIC ([2]; CDC Antibiotic-Resistant Bank No. 0302) of 1 mg/L and an MIC ([2]; CDC Antibiotic-Resistant Bank No. 0303) of 1 mg/L. The MIC ([2]; CDC Antibiotic-Resistant Bank No. 0304) was 0.5 mg/L, the MIC ([2]; CDC Antibiotic-Resistant Bank No. 0305) was 0.5 mg/L and the MIC ([2]; CDC Antibiotic-Resistant Bank No. 0306) was 0.5 mg/L. The MIC ([2]; CDC Antibiotic-Resistant Bank No. 0307) was 1 mg/L, the MIC ([2]; CDC Antibiotic-Resistant Bank No. 0308) was 1 mg/L and the MIC ([2]; CDC Antibiotic-Resistant Bank No. 0309) was 1 mg/L. For the same compound, the MIC ([2]; CDC Antibiotic-Resistant Bank No. 0310) was 0.5 mg/L, the MIC ([2]; CDC Antibiotic-Resistant Bank No. 0311) was 0.5 mg/L and the MIC ([2]; CDC Antibiotic-Resistant Bank No. 0312) was 0.5 mg/L. It also gave an MIC ([2]; CDC Antibiotic-Resistant Bank No. 0313) of 0.5 mg/L, an MIC ([3]; Bank No. 0112, Klebsiella pneumoniae) of 1 mg/L and an MIC ([3]; Bank No. 0113, Klebsiella pneumoniae) of 1 mg/L. It also gave an MIC ([3]; Bank No. 0114, Escherichia coli) of 0.5 mg/L, an MIC ([3]; Bank No. 0115, Klebsiella pneumoniae) of 1 mg/L and an MIC ([3]; Bank No. 0116, Citrobacter freundii) of 0.5 mg/L. The MIC ([3]; Bank No. 0117, Klebsiella pneumoniae) was 0.5 mg/L, the MIC ([3]; Bank No. 0118, Escherichia coli) was 0.5 mg/L and the MIC ([3]; Bank No. 0119, Escherichia coli) was 0.5 mg/L. For the same compound, the MIC ([3]; Bank No. 0120, Klebsiella pneumoniae) was 0.25 mg/L, the MIC ([3]; Bank No. 0121, Serratia marcescens) was greater than 8 mg/L and the MIC ([3]; Bank No. 0122, Serratia marcescens) was greater than 8 mg/L. It also gave an MIC ([3]; Bank No. 0123, Serratia marcescens) greater than 8 mg/L, an MIC ([3]; Bank No. 0124, Serratia marcescens) greater than 8 mg/L and an MIC ([3]; Bank No. 0125, Klebsiella pneumoniae) of 1 mg/L. For the same compound, the MIC ([3]; Bank No. 0126, Klebsiella pneumoniae) was 1 mg/L, the MIC ([3]; Bank No. 0127, Salmonella Senftenberg) was 0.5 mg/L and the MIC ([3]; Bank No. 0128, Escherichia coli) was 0.5 mg/L. It also gave an MIC ([3]; Bank No. 0129, Klebsiella pneumoniae) of 1 mg/L, an MIC ([3]; Bank No. 0130, Serratia marcescens) greater than 8 mg/L and an MIC ([3]; Bank No. 0131, Serratia marcescens) greater than 8 mg/L. The MIC ([3]; Bank No. 0132, Enterobacter cloacae group) was 1 mg/L, the MIC ([3]; Bank No. 0134, Raoultella ornithinolytica) was 1 mg/L and the MIC ([3]; Bank No. 0135, Klebsiella pneumoniae) was 0.5 mg/L. The MIC ([3]; Bank No. 0136, Enterobacter cloacae) was 0.5 mg/L, the MIC ([3]; Bank No. 0137, Escherichia coli) was 0.25 mg/L and the MIC ([3]; Bank No. 0138, Klebsiella pneumoniae) was 0.5 mg/L. It also gave an MIC ([3]; Bank No. 0139, Klebsiella pneumoniae) of 1 mg/L, an MIC ([3]; Bank No. 0140, Klebsiella pneumoniae) of 0.5 mg/L and an MIC ([3]; Bank No. 0141, Klebsiella pneumoniae) of 0.5 mg/L. For the same compound, the MIC ([3]; Bank No. 0142, Klebsiella pneumoniae) was 0.5 mg/L, the MIC ([3]; Bank No. 0143, Klebsiella pneumoniae) was 0.5 mg/L and the MIC ([3]; Bank No. 0144, Kluyvera ascorbata) was 0.25 mg/L. For the same compound, the MIC ([3]; Bank No. 0145, Klebsiella pneumoniae) was 1 mg/L, the MIC ([3]; Bank No. 0146, Klebsiella pneumoniae) was 1 mg/L and the MIC ([3]; Bank No. 0147, Klebsiella oxytoca) was 1 mg/L. The MIC ([3]; Bank No. 0148, Klebsiella pneumoniae) was 1 mg/L, the MIC ([3]; Bank No. 0149, Escherichia coli) was 0.5 mg/L and the MIC ([3]; Bank No. 0150, Escherichia coli) was 0.25 mg/L. For the same compound, the MIC ([3]; Bank No. 0151, Escherichia coli) was 0.25 mg/L, the MIC ([3]; Bank No. 0152, Klebsiella pneumoniae) was 1 mg/L and the MIC ([3]; Bank No. 0153, Klebsiella pneumoniae) was 0.5 mg/L. It also gave an MIC ([3]; Bank No. 0154, Enterobacter cloacae) of 0.25 mg/L, an MIC ([3]; Bank No. 0155, Proteus mirabilis) of 0.25 mg/L and an MIC ([3]; Bank No. 0156, Proteus mirabilis) of 0.5 mg/L. For the same compound, the MIC ([3]; Bank No. 0157, Citrobacter freundii) was 0.5 mg/L, the MIC ([3]; Bank No. 0158, Klebsiella pneumoniae) was 0.5 mg/L and the MIC ([3]; Bank No. 0159, Proteus mirabilis) was 0.25 mg/L. It also gave an MIC ([3]; Bank No. 0160, Klebsiella pneumoniae) of 1 mg/L, an MIC ([3]; Bank No. 0161, Enterbacter aerogenes) of 2 mg/L and an MIC ([3]; Bank No. 0162, Escherichia coli) of 0.25 mg/L. It also gave an MIC ([3]; Bank No. 0163, Enterobacter cloacae) of 0.25 mg/L, an MIC ([3]; Bank No. 0164, Enterobacter cloacae complex) of 1 mg/L and an MIC50 [3, 4] of 0.5 mg/L. The MIC90 [3, 4] was 1 mg/L.
